Results as given in PubChem BioAssay AID330 (DTP/NCI, 2004).
Several values for one entry are separate records, joined by “and”; a condition that tells them apart may be missing. Equal values may be shown once. Inconclusive results and toxic doses are left out.

Test system: P388 leukemia ip, CD2F1 mice, survival T/C
Assay: NCI In Vivo Anticancer Drug Screen. Data for tumor model P388 Leukemia (intraperitoneal) in CD2F1 (CDF1) mice
Conditions: endpoint: median survival time, higher = longer survival
Procedure, shortened: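 Mice carrying the transplanted tumor received test compound or vehicle. Survival was recorded in each group, and the value is the treated-group measurement divided by that of the vehicle-treated control group.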

[1] = dose: 60.0 mg/kg/injection, schedule: Q01DX005 (ip), vehicle: saline with Tween-80
[2] = dose: 120.0 mg/kg/injection, schedule: Q01DX005 (ip), vehicle: saline with Tween-80
[3] = dose: 25.0 mg/kg/injection, schedule: Q01DX009 (ip), vehicle: saline with Tween-80
[4] = dose: 25.0 mg/kg/injection, schedule: Q04DX003 (ip), vehicle: saline with Tween-80
[5] = dose: 50.0 mg/kg/injection, schedule: Q01DX009 (ip), vehicle: saline with Tween-80
[6] = dose: 50.0 mg/kg/injection, schedule: Q04DX003 (ip), vehicle: saline with Tween-80
[7] = dose: 100.0 mg/kg/injection, schedule: Q01DX009 (ip), vehicle: saline with Tween-80
[8] = dose: 100.0 mg/kg/injection, schedule: Q04DX003 (ip), vehicle: saline with Tween-80
[9] = dose: 50.0 mg/kg/injection, schedule: Q01DX005 (ip), vehicle: saline with Tween-80
[10] = dose: 100.0 mg/kg/injection, schedule: Q01DX005 (ip), vehicle: saline with Tween-80
[11] = dose: 200.0 mg/kg/injection, schedule: Q01DX005 (ip), vehicle: saline with Tween-80
[12] = dose: 50.0 mg/kg/injection, schedule: Q01DX005 (ip), vehicle: Klucel (hydroxypropylcellulose) (HPC)
[13] = dose: 100.0 mg/kg/injection, schedule: Q01DX005 (ip), vehicle: Klucel (hydroxypropylcellulose) (HPC)
[14] = dose: 200.0 mg/kg/injection, schedule: Q01DX005 (ip), vehicle: Klucel (hydroxypropylcellulose) (HPC)

C/C(C#N)=C1/Nc2ccccc2NC1=O
T/C (dose: 25.0 mg/kg/injection, schedule: Q01DX009 (ip), vehicle: distilled water + Tween-80 + alcohol): 95 % of control
T/C (dose: 50.0 mg/kg/injection, schedule: Q01DX009 (ip), vehicle: distilled water + Tween-80 + alcohol): 88 % of control and 92 % of control
T/C (dose: 100.0 mg/kg/injection, schedule: Q01DX009 (ip), vehicle: distilled water + Tween-80 + alcohol): 91 % of control
T/C (dose: 200.0 mg/kg/injection, schedule: Q01DX009 (ip), vehicle: distilled water + Tween-80 + alcohol): 100 % of control

CCCCOC(=O)C1C2CCC(O2)C1C(N)=O (stereo not given)
T/C [1]: 99 % of control
T/C [2]: 100 % of control

CC1(C)CC(OC(=O)CCC(=O)OC2CC(C)(C)N(O)C(C)(C)C2)CC(C)(C)N1O
T/C (dose: 50.0 mg/kg/injection, schedule: Q01DX009 (ip), vehicle: suspension in saline): 100 % of control
T/C (dose: 100.0 mg/kg/injection, schedule: Q01DX009 (ip), vehicle: suspension in saline): 100 % of control
T/C (dose: 200.0 mg/kg/injection, schedule: Q01DX009 (ip), vehicle: suspension in saline): 96 % of control

CO[C@H]1/C=C/O[C@@]2(C)Oc3c(C)c(O)c4c(O)c(c(/C=N/N5C(C)CN(Cc6ccccc6)CC5C)c(O)c4c3C2=O)NC(=O)/C(C)=C\C=C\[C@H](C)[C@H](O)[C@@H](C)[C@@H](O)[C@@H](C)[C@H](OC(C)=O)[C@@H]1C (stereo not given in full)
T/C (dose: 100.0 mg/kg/injection, schedule: Q01DX009 (ip), vehicle: saline sonified): 90 % of control
T/C (dose: 200.0 mg/kg/injection, schedule: Q01DX009 (ip), vehicle: saline sonified): 95 % of control

Cc1[nH]cnc1CSCCN=C(N)n1[nH]cc(-c2ccc(Cl)cc2)c1=O
T/C (dose: 100.0 mg/kg/injection, schedule: Q01DX001 (ip), vehicle: Klucel (hydroxypropylcellulose) (HPC)): 100 % of control
T/C (dose: 200.0 mg/kg/injection, schedule: Q01DX001 (ip), vehicle: Klucel (hydroxypropylcellulose) (HPC)): 97 % of control
T/C (dose: 400.0 mg/kg/injection, schedule: Q01DX001 (ip), vehicle: Klucel (hydroxypropylcellulose) (HPC)): 101 % of control

S=P(c1ccccc1)(N1CC1)N1CC1
T/C [3]: 109 % of control
T/C [4]: 104 % of control
T/C [5]: 104 % of control
T/C [6]: 104 % of control
T/C [7]: 86 % of control
T/C [8]: 100 % of control and 113 % of control

CC(=O)OCC1OC(N(CCCl)CCCl)C(OC(C)=O)C(OC(C)=O)C1OC(C)=O (stereo not given)
T/C (dose: 1.25 mg/kg/injection, schedule: Q01DX005 (ip), vehicle: distilled water + Tween-80): 106 % of control
T/C (dose: 2.5 mg/kg/injection, schedule: Q01DX005 (ip), vehicle: distilled water + Tween-80): 110 % of control and 115 % of control
T/C (dose: 5.0 mg/kg/injection, schedule: Q01DX005 (ip), vehicle: distilled water + Tween-80): 110 % of control and 117 % of control and 119 % of control
T/C (dose: 10.0 mg/kg/injection, schedule: Q01DX005 (ip), vehicle: distilled water + Tween-80): 173 % of control
T/C (dose: 20.0 mg/kg/injection, schedule: Q01DX005 (ip), vehicle: distilled water + Tween-80): 187 % of control [middle of 4 runs]
T/C (dose: 40.0 mg/kg/injection, schedule: Q01DX005 (ip), vehicle: distilled water + Tween-80): 199 % of control

O=C(Cl)c1ccccc1Sc1ccccc1
T/C [3]: 95 % of control
T/C [4]: 100 % of control
T/C [5]: 90 % of control
T/C [6]: 100 % of control
T/C [7]: 100 % of control
T/C [8]: 100 % of control

COc1ccc(C2OC(N)=C(O)C2=O)cc1OC (stereo not given)
T/C (dose: 60.0 mg/kg/injection, schedule: Q01DX005 (ip), vehicle: Klucel (hydroxypropylcellulose) (HPC)): 100 % of control
T/C (dose: 120.0 mg/kg/injection, schedule: Q01DX005 (ip), vehicle: Klucel (hydroxypropylcellulose) (HPC)): 91 % of control
T/C (dose: 240.0 mg/kg/injection, schedule: Q01DX005 (ip), vehicle: Klucel (hydroxypropylcellulose) (HPC)): 95 % of control

O=S(=O)(OCC(O)C1OCC(O)C1O)c1ccccc1 (stereo not given)
T/C (dose: 50.0 mg/kg/injection, schedule: Q01DX009 (ip), vehicle: saline): 98 % of control
T/C (dose: 100.0 mg/kg/injection, schedule: Q01DX009 (ip), vehicle: saline): 100 % of control
T/C (dose: 200.0 mg/kg/injection, schedule: Q01DX009 (ip), vehicle: saline): 105 % of control

N#CC(C(=O)CCc1nc2ccccc2[nH]1)c1ccccc1Cl (stereo not given)
T/C [1]: 111 % of control
T/C [2]: 105 % of control
T/C (dose: 240.0 mg/kg/injection, schedule: Q01DX005 (ip), vehicle: saline with Tween-80): 96 % of control

CCOC(=O)C(=CN(C)c1ccccc1)C(=O)OCC
T/C [5]: 108 % of control
T/C [7]: 108 % of control
T/C (dose: 200.0 mg/kg/injection, schedule: Q01DX009 (ip), vehicle: saline with Tween-80): 101 % of control

CC(=O)C(=Cc1ccc(O)cc1)C(C)=O
T/C [9]: 100 % of control
T/C [10]: 103 % of control
T/C [11]: 103 % of control

CC1(C)OC(c2ccccc2)=CC1=O
T/C (dose: 100.0 mg/kg/injection, schedule: Q04DX002 (ip), vehicle: saline with Tween-80): 101 % of control
T/C (dose: 200.0 mg/kg/injection, schedule: Q04DX002 (ip), vehicle: saline with Tween-80): 101 % of control

CN(C)C1=c2c(=O)n(C)c(=O)n(C)c2=NC2C=CC=CN12 (stereo not given)
T/C [12]: 100 % of control
T/C [13]: 96 % of control
T/C [14]: 86 % of control

NS(=O)(=O)c1ccc(Nc2c3ccccc3nc3ccccc23)cc1
T/C (dose: 100.0 mg/kg/injection, schedule: Q04DX003 (ip), vehicle: Klucel (hydroxypropylcellulose) (HPC)): 110 % of control and 86 % of control (2×)
T/C (dose: 118.0 mg/kg/injection, schedule: Q04DX003 (ip), vehicle: Klucel (hydroxypropylcellulose) (HPC)): 93 % of control
T/C (dose: 200.0 mg/kg/injection, schedule: Q04DX003 (ip), vehicle: Klucel (hydroxypropylcellulose) (HPC)): 118 % of control and 90 % of control
T/C (dose: 236.0 mg/kg/injection, schedule: Q04DX003 (ip), vehicle: Klucel (hydroxypropylcellulose) (HPC)): 99 % of control
T/C (dose: 400.0 mg/kg/injection, schedule: Q04DX003 (ip), vehicle: Klucel (hydroxypropylcellulose) (HPC)): 120 % of control and 88 % of control and 95 % of control
T/C (dose: 472.0 mg/kg/injection, schedule: Q04DX003 (ip), vehicle: Klucel (hydroxypropylcellulose) (HPC)): 99 % of control

C1CC[N-]CC1.C1CC[N-]CC1.C1CC[N-]CC1.[Cr+6].[N-]=C=O.[N-]=C=O.[N-]=C=O
T/C (dose: 100.0 mg/kg/injection, schedule: Q04DX002 (ip), vehicle: distilled water + alcohol): 99 % of control
T/C (dose: 200.0 mg/kg/injection, schedule: Q04DX002 (ip), vehicle: distilled water + alcohol): 96 % of control
T/C (dose: 400.0 mg/kg/injection, schedule: Q04DX002 (ip), vehicle: distilled water + alcohol): 89 % of control

CC(C)C1CC2CCC3C(C)(C(=O)O)CCCC3(C)C2CC1CO (stereo not given)
T/C [8]: 100 % of control
T/C (dose: 200.0 mg/kg/injection, schedule: Q04DX003 (ip), vehicle: saline with Tween-80): 91 % of control

Cc1nn(C(=O)c2cccnc2)c(-c2ccccc2)c1N=Nc1ccc(C(=O)O)cc1
T/C [9]: 93 % of control
T/C [10]: 93 % of control

O=S(=O)(CCNCCCCC1CCCCC1)SCCNCCCCC1CCCCC1
T/C (dose: 6.25 mg/kg/injection, schedule: Q01DX005 (ip), vehicle: Klucel (hydroxypropylcellulose) (HPC)): 100 % of control
T/C (dose: 12.5 mg/kg/injection, schedule: Q01DX005 (ip), vehicle: Klucel (hydroxypropylcellulose) (HPC)): 101 % of control
T/C (dose: 25.0 mg/kg/injection, schedule: Q01DX005 (ip), vehicle: Klucel (hydroxypropylcellulose) (HPC)): 95 % of control

O=C(NCCS(=O)(=O)O)C1CCCN1 (stereo not given)
T/C (dose: 60.0 mg/kg/injection, schedule: Q01DX005 (ip), vehicle: saline): 100 % of control
T/C (dose: 120.0 mg/kg/injection, schedule: Q01DX005 (ip), vehicle: saline): 100 % of control
T/C (dose: 240.0 mg/kg/injection, schedule: Q01DX005 (ip), vehicle: saline): 99 % of control

CCOC(=O)c1ccnc2ccc(OCCN(CC)CC)cc12
T/C (dose: 50.0 mg/kg/injection, schedule: Q01DX005 (ip), vehicle: saline): 96 % of control
T/C (dose: 100.0 mg/kg/injection, schedule: Q01DX005 (ip), vehicle: saline): 100 % of control
T/C (dose: 200.0 mg/kg/injection, schedule: Q01DX005 (ip), vehicle: saline): 101 % of control

COc1ccc(S(=O)(=O)N/N=C/c2ccccn2)cc1OC
T/C [12]: 99 % of control
T/C [13]: 96 % of control
T/C [14]: 98 % of control

O=C(Nc1ccccc1)Nc1c2c(nc3ccccc13)CCCCC2
T/C [9]: 86 % of control
T/C [10]: 89 % of control
T/C [11]: 90 % of control
